From paper PMC13083723 (Patterns, 2026) come the findings set out here.

Residues, ends and D or L forms follow the SMILES beside them. *: point of attachment. Cbz = O=C(OCc1ccccc1)*

In this experiment the test system is Vero-E6 cells. Briefly: cells. The following applies: Chlorocebus sabaeus, Vero C1008, 24 h, read-out: PL_Result. Type of experiment: cell-based.
For the compound `COc1ccc(C(=O)/C(Cc2cc(OC)c(OC)c(OC)c2)=C(\C(=O)O)c2ccc3c(c2)OCO3)cc1` [SPE_K13826399], the activation at 10 µM amounted to 12.9%.
Turning to `CC(=O)OCC(=O)[C@H]1CC[C@H]2[C@@H]3CC[C@H]4C[C@H](O)CC[C@]4(C)[C@H]3C(=O)C[C@]12C` [SPE_K51751936], the activation at 10 µM was -4.71%.
As to `C[C@@H]1C[C@H]2[C@@H]3C[C@H](F)C4=CC(=O)C=C[C@]4(C)[C@@]3(Cl)[C@@H](O)C[C@]2(C)[C@H]1C(=O)COC(=O)C(C)(C)C` [SPE_K38003476], the activation at 10 µM is -1.81%.
In the case of `COc1ccc(COc2cc3oc(=O)c4cc(C(C)O)ccc4c3cc2OC)cc1` (stereo not shown) [SPE_A50998626] it was -7.77%.
To `CCCCN(CCCC)C(=O)CN1C[C@H](c2ccc3c(c2)OCO3)[C@@H](C(=O)O)[C@@H]1c1ccc(OC)cc1` [SPE_K16295392] belongs -6.93%; to `N=C(N)NCc1cccc(I)c1` [SPE_K43860855], -5.07%; to `Clc1ccc(C(Cn2ccnc2)OCc2ccsc2Cl)c(Cl)c1` (stereo not shown) [SPE_A33084557], 4.51%.
To `O=C1NC(=S)NC(=O)C1C(=O)Nc1ccccc1` [SPE_K45152786] belongs -1.42%.
Consider `CC(C)[C@@H](C)/C=C/[C@@H](C)[C@H]1CC[C@H]2C3=CC=C4C[C@@H](O)CC[C@]4(C)[C@H]3CC[C@]12C` [SPE_K09161066], for which the activation at 10 µM was -4.6%.
On to `CCN(CCO)CCCOc1ccc2c(Nc3cc(CC(=O)Nc4cccc(F)c4)n[nH]3)ncnc2c1` [SPE_K63923597], for which the activation at 10 µM was -6.57%.
On to `COc1cc(NS(=O)(=O)c2ccc(N)cc2)ncn1` [SPE_K14116214], for which the activation at 10 µM was -1.27%.
In the case of `CS(=O)(=O)c1ccc(-c2cn3ccccc3n2)cc1` [SPE_K45125084] it was -7.32%; in that of `CNC1CCCN(c2c(F)cc3c(=O)c(C(=O)O)cn(C4CC4)c3c2OC)C1` (stereo not shown) [SPE_A47790386], 3.04%; in that of `CCCCCCCCCCCCCCCc1cccc(OCC(=O)NCCO)c1` [SPE_K26358347], -8.8%.
For the compound `Nc1ncnc2c1ncn2[C@@H]1O[C@H](CO)[C@@H](O)[C@H]1O` [SPE_K01577834], the activation at 10 µM is -3.02%.
For `CCc1cc2c(cc1N1CCC(N3CCOCC3)CC1)C(C)(C)c1[nH]c3cc(C#N)ccc3c1C2=O` [SPE_K11267252], the activation at 10 µM came to 0.894%.
In the case of `COc1cc(/C=C/C(=O)O)ccc1O` [SPE_K66295376] it was -10.8%.
In the case of `CNC(=O)c1c(C)oc2cc(Oc3ncnc4cc(OC)c(OC)cc34)ccc12` [SPE_K70504253] it was 8.27%; in that of `CN1Cc2c(C(=O)OC(C)(C)C)ncn2-c2ccsc2C1=O` [SPE_K80778372], 4.64%; in that of `CS(=O)(=O)c1ccc(C(O)[C@H](CF)NC(=O)C(Cl)Cl)cc1` (stereo partly shown) [SPE_A30886737], 3.66%.
As to `CN(C)C(=O)Oc1cccc([N+](C)(C)C)c1` [SPE_K18922609], the activation at 10 µM is -9.73%.
To `Cc1cc(/C=C/C#N)cc(C)c1Nc1ccnc(Nc2ccc(C#N)cc2)n1` [SPE_K06240250] belongs -8.07%; to `COc1ccc(C(=O)c2ccccc2O)c(O)c1` [SPE_K22193694], -2.64%.
In the case of `CC(C)(C)C(=O)NCCCC(=O)O` [SPE_K62264492] it was 5.19%; in that of `O=C(/C=C/c1cccnc1)NCCCCC1CCN(C(=O)c2ccccc2)CC1` [SPE_K58550667], 2.51%; in that of `Clc1ccc(C(Cn2ccnc2)OCc2ccc(Sc3ccccc3)cc2)c(Cl)c1` (stereo not shown) [SPE_A33697453], 17.3%.
In the case of `CN(C)C(=O)Oc1cc(OC(=O)N(C)C)cc(C(O)CNC(C)(C)C)c1` (stereo not shown) [SPE_A17462676] it was -4.78%; in that of `C=CC(=O)N1CCC(Oc2cc3c(Nc4ccc(Cl)c(Cl)c4F)ncnc3cc2OC)CC1` [SPE_K50010139], -3.41%; in that of `CC(C)CCN1c2nc(Nc3cc(F)c(O)c(F)c3)ncc2N(C)C(=O)C1C` (stereo not shown) [SPE_A81370665], -5.78%.
On to `Nc1c[n+](N2CCOCC2)no1` [SPE_K72922393], for which the activation at 10 µM was -10.9%.
For `CCCCNc1cc(C(=O)O)cc(S(N)(=O)=O)c1Oc1ccccc1` [SPE_K38197229], the activation at 10 µM was -2.26%.
To `Nc1ccc(S(=O)(=O)Nc2ccc(Cl)nn2)cc1` [SPE_K32021043] belongs 5.81%.
Regarding `COc1ccccc1N1CCN(CCCCNC(=O)c2ccc3ccccc3c2)CC1` [SPE_K17378184], the activation at 10 µM turned out to be 28.8%.
In the case of `CCc1cc2c(c(CC)n1)CCC(=O)N2Cc1ccc(-c2ccccc2-c2nnn[nH]2)cc1` [SPE_K11373525], the activation at 10 µM was -4.91%.
In the case of `CC(CN)CC(=O)O` (stereo not shown) [SPE_A62890442] it was -10.6%; in that of `Cc1ccc(S(=O)(=O)NC(=O)NN2CCCCCC2)cc1` [SPE_K32164935], -1.35%.
In the case of `O=C(NCc1ccc(Oc2ccccc2)cc1)c1nc(-c2cc(Br)c(O)c(Br)c2)no1` [SPE_K84892605] it was -10.4%; in that of `CC(C)CC(NC(=O)C1CCCN1)C(=O)NCC(N)=O` (stereo not drawn) [SPE_A09911125] (H-Pro-Leu-Gly-NH2; configuration not given here), -6.88%.
As to `O=c1[nH]c(=O)n([C@H]2C[C@H](O)[C@@H](CO)O2)cc1/C=C/Br` [SPE_A63675168], the activation at 10 µM was -6.33%.
For `CN1CCN(c2nc(C3=C(c4c[nH]c5ccccc45)C(=O)NC3=O)c3ccccc3n2)CC1` [SPE_K16761703], the activation at 10 µM amounted to 37.5%.
To `CCCCC/C=C\C=C/CCCCCCCCC(=O)O` [SPE_K26222048] belongs -6.49%; to `CCCN1CCCC[C@H]1C(=O)Nc1c(C)cccc1C` [SPE_K50938786], 0.0286%; to `CC(=O)NCCNc1cc(Cl)nn2c(-c3cccc(S(=O)(=O)N(C)C)c3)c(C)nc12` [SPE_K26726854], 0.695%.
To `N[C@@H](CC(=O)N1CCn2c(nnc2C(F)(F)F)C1)Cc1n[nH]c2c(F)c(F)ccc12` [SPE_K04035716] belongs -1.31%.
In the case of `CS(=O)(=O)Nc1ccc([N+](=O)[O-])cc1Oc1ccccc1` [SPE_K76775527] it was -12.8%; in that of `CN(CCCN1c2ccccc2CCc2ccccc21)CC(=O)c1ccc(Cl)cc1` [SPE_K82147103], -0.728%.
Take `NCC1CC(=O)N(Cc2ccccc2)C1` (stereo not shown) [SPE_A51355958]: the activation at 10 µM was 2%.
In the case of `Oc1cc(Cl)ccc1Oc1ccc(Cl)cc1Cl` [SPE_K41731458], the activation at 10 µM came to 0.158%.
Take `NC1(Cc2ccc(Cl)cc2)CCN(c2ncnc3[nH]ccc23)CC1` [SPE_K76406695]: the activation at 10 µM is -4.38%.
In the case of `NC[C@@H]1CC[C@@H](N)[C@@H](O[C@H]2[C@H](O)[C@@H](O[C@H]3O[C@H](CO)[C@@H](O)[C@H](N)[C@H]3O)[C@H](N)C[C@@H]2N)O1` [SPE_K48427910] it was -9.88%; in that of `Cc1csc(-c2nnc(Nc3ccc(Oc4ncccc4-c4ccnc(N)n4)cc3)c3ccccc23)c1` [SPE_K21728777], -11.5%; in that of `O=C1OC(c2ccc(O)cc2)(c2ccc(O)cc2)c2ccccc21` [SPE_K19227686], 1.99%.
Turning to `CC(C)C[C@@H](C=O)NC(=O)[C@H](CC(C)C)NC(=O)[C@H](CC(C)C)NC(=O)OCc1ccccc1` [SPE_K60230970] (Cbz-Leu-Leu-Leu-aldehyde), the activation at 10 µM is -0.437%.
In the case of `N#Cc1ccc(N2CCN(C(=O)COc3ccc4[nH]cc(CCN)c4c3)CC2)cc1` [SPE_K31092604] it was 1.38%; in that of `O=C(O)C1=CCNCC1` [SPE_K66480997], -5.88%; in that of `CC(C)OC(=O)OCOP(=O)(CO[C@H](C)Cn1cnc2c(N)ncnc21)OCOC(=O)OC(C)C` [SPE_K61868322], -3.62%.
To `CC(C)(C)NCC(O)COc1cccc2[nH]c(=O)[nH]c12` (stereo not shown) [SPE_A40084411] belongs 1.76%; to `CC(C)(C)NCC(O)c1cc(O)cc(O)c1` (stereo not shown) [SPE_M79902621], -4.19%.
Regarding `CC(C)Oc1ccc2c(=O)c3cc(C(=O)O)ccc3oc2c1` [SPE_K59339270], the activation at 10 µM is -2.83%.
To `COc1nc(C)nc(Cl)c1NC1=NCCN1` [SPE_K77771411] belongs -3.03%.
On to `COc1cc(-n2c(S)nc3ccccc3c2=O)c(Cl)cc1Cl` [SPE_K61128465], for which the activation at 10 µM stood at 22%.
In the case of `CC(C)(C)C(=O)OCC(=O)[C@H]1CC[C@H]2[C@@H]3CCC4=CC(=O)CC[C@]4(C)[C@H]3CC[C@]12C` [SPE_K26024145] it was -4.69%; in that of `O=S(=O)(NCCCCCCc1ccccc1)c1cccc2c(Cl)cccc12` [SPE_K25875056], -10.4%.
Regarding `Nc1nc(NC2CC2)cc(-c2cccc(Cl)c2Cl)n1` [SPE_K01054709], the activation at 10 µM was -5.46%.
To `C[C@@]12C[C@@]3(O)O[C@@H](O1)[C@]1(COC(=O)c4ccccc4)[C@H]3C[C@@]12O[C@@H]1O[C@H](CO)[C@@H](O)[C@H](O)[C@H]1O` [SPE_K83631119] belongs 4.42%; to `c1ccc(-c2n[nH]c3c2oc2ccccc23)cc1` [SPE_K16664969], -3.59%; to `Cc1cc(C(N)=O)ccc1-n1c(CCC(=O)O)ccc1-c1ccc(-n2ccnc2)cc1` [SPE_K82522873], -2.92%.
For the compound `COc1ccc([C@H]2CNC(=O)C2)cc1OC1CCCC1` [SPE_K65856711], the activation at 10 µM was -5.06%.
To `COc1cc(C=O)c([N+](=O)[O-])cc1OC` [SPE_K03564313] belongs 2.17%; to `NS(=O)(=O)c1ccc(-n2nc(C(F)(F)F)cc2-c2ccc(Cl)cc2)cc1` [SPE_K76365178], -2.4%.
In the case of `CCCCC1C(=O)N(c2ccccc2)N(c2ccc(O)cc2)C1=O` (stereo not shown) [SPE_A33749298] it was 2.66%; in that of `Nc1ccc(S(=O)(=O)Nc2ccnn2-c2ccccc2)cc1` [SPE_K10671814], -1.85%; in that of `N#Cc1ccc(Cn2cncc2CN2CCN(c3cccc(Cl)c3)C(=O)C2)cc1` [SPE_K10958118], -5.79%.
